# Assay results as given in ChEMBL document CHEMBL1154779, “Synthesis and adrenolytic activity of 1-(1H-indol-4-yloxy)-3-(2-(2-methoxy phenoxy)ethylamino)propan-2-ol analogs and its enantiomers. Part 2” (Eur J Med Chem, 2009).
# How the values were obtained:
# Rattus norvegicus [1] = assay: Effect on heart rate in anesthetized Wistar rat assessed as heart beats per min at 1 mg/kg, iv after 5 mins by electrocardiography; assay type: functional
# Rattus norvegicus [2] = assay: Effect on heart rate in anesthetized Wistar rat assessed as P-Q intervals time at 1 mg/kg, iv after 1 min by electrocardiography; assay type: functional
# Rattus norvegicus [3] = assay: Effect on heart rate in anesthetized Wistar rat assessed as heart beats per min at 1 mg/kg, iv after 1 min by electrocardiography; assay type: functional
# Rattus norvegicus [4] = assay: Antiarrhythmic activity in Wistar rat assessed as inhibition of adrenaline-induced premature ventricular beats at 1 mg/kg, iv administered 15 mins before adrenaline challenge measured after 15 mins by electrocardiography; assay type: functional; conditions: Heart
# Rattus norvegicus [5] = assay: Effect on heart rate in anesthetized Wistar rat assessed as Q-T intervals time at 1 mg/kg, iv after 1 min by electrocardiography; assay type: functional
# Rattus norvegicus [6] = assay: Effect on heart rate in anesthetized Wistar rat assessed as QRS complex time at 1 mg/kg, iv after 15 mins by electrocardiography; assay type: functional
# Rattus norvegicus [7] = assay: Effect on heart rate in anesthetized Wistar rat assessed as P-Q intervals time at 1 mg/kg, iv after 5 mins by electrocardiography; assay type: functional
# [8] = Displacement of [3H]CGP12177 from beta-1 adrenergic receptor in Wistar rat cerebral cortex membrane by liquid scintillation counting; assay type: tissue-based
# Rattus norvegicus [9] = assay: Effect on heart rate in anesthetized Wistar rat assessed as QRS complex time at 1 mg/kg, iv after 1 min by electrocardiography; assay type: functional
# Rattus norvegicus [10] = assay: Effect on heart rate in anesthetized Wistar rat assessed as Q-T intervals time at 1 mg/kg, iv after 15 mins by electrocardiography; assay type: functional
# Rattus norvegicus [11] = assay: Effect on heart rate in anesthetized Wistar rat assessed as heart beats per min at 1 mg/kg, iv after 15 mins by electrocardiography; assay type: functional
# Rattus norvegicus [12] = assay: Effect on heart rate in anesthetized Wistar rat assessed as P-Q intervals time at 1 mg/kg, iv after 15 mins by electrocardiography; assay type: functional
# Rattus norvegicus [13] = assay: Effect on heart rate in anesthetized Wistar rat assessed as QRS complex time at 1 mg/kg, iv after 5 mins by electrocardiography; assay type: functional
# Rattus norvegicus [14] = assay: Effect on heart rate in anesthetized Wistar rat assessed as Q-T intervals time at 1 mg/kg, iv after 5 mins by electrocardiography; assay type: functional
SMILES,Activity (Rattus norvegicus [1]),Activity (Rattus norvegicus [2]),Activity (Rattus norvegicus [3]),ED50 (Rattus norvegicus [4]),Activity (Rattus norvegicus [5]),Activity (Rattus norvegicus [6]),Activity (Rattus norvegicus [7]),Ki [8],Activity (Rattus norvegicus [9]),Activity (Rattus norvegicus [10]),Activity (Rattus norvegicus [11]),Activity (Rattus norvegicus [12]),Activity (Rattus norvegicus [13]),Activity (Rattus norvegicus [14])
COc1ccccc1OCCNCC(O)COc1cccc2[nH]c3ccccc3c12 (stereo not drawn) [CARVEDILOL],340.3 bpm,50 ms,345.2 bpm,0.25 mg/kg,,,,,,,,,,
COc1ccccc1OCCNCC(O)COc1cccc2[nH]ccc12 (racemic),294.5 bpm,47.2 ms,298.7 bpm,0.34 mg/kg,69.2 ms,26.9 ms,48.1 ms,3 nM,28.4 ms,72.8 ms,287.3 bpm,46.2 ms,24.9 ms,69 ms
